Assay results from the kinase profiling compilation of Christmann-Franck et al. (2016).

Tests used:
Assay in all cases: KINOMEscan competition binding
Settings in all cases: compound 10.0 µM
PDPK1 (human) = PDPK1 (human) (UniProt O15530)
DMPK (human) = DMPK (human) (UniProt Q09013)
CAMKK1 (human) = CAMKK1 (human) (UniProt Q8N5S9)
FYN (human) = FYN (human) (UniProt P06241)
PTK2B (human) = PTK2B (human) (UniProt Q14289)
PRKD2 (human) = PRKD2 (human) (UniProt Q9BZL6)
RIOK2 (human) = RIOK2 (human) (UniProt Q9BVS4)
PIK3C2G (human) = PIK3C2G (human) (UniProt O75747)
SRPK2 (human) = SRPK2 (human) (UniProt P78362)
OXSR1 (human) = OXSR1 (human) (UniProt O95747)
ANKK1 (human) = ANKK1 (human) (UniProt Q8NFD2)
MAPK15 (human) = MAPK15 (human) (UniProt Q8TD08)
FGR (human) = FGR (human) (UniProt P09769)
[1] = molecular target: JAK1 JH2 pseudokinase (human) (UniProt P23458)
KIT (human) = KIT (human) (UniProt P10721)
CDK3 (human) = CDK3 (human) (UniProt Q00526)
RPS6KA4 KD2 (human) = RPS6KA4 KD2 (human) (UniProt O75676)
CDKL5 (human) = CDKL5 (human) (UniProt O76039)
MYLK2 (human) = MYLK2 (human) (UniProt Q9H1R3)
CDK17 (human) = CDK17 (human) (UniProt Q00537)
RPS6KA4 KD1 (human) = RPS6KA4 KD1 (human) (UniProt O75676)
DAPK2 (human) = DAPK2 (human) (UniProt Q9UIK4)
SIK2 (human) = SIK2 (human) (UniProt Q9H0K1)
MAPKAPK2 (human) = MAPKAPK2 (human) (UniProt P49137)
NUAK2 (human) = NUAK2 (human) (UniProt Q9H093)
EPHB3 (human) = EPHB3 (human) (UniProt P54753)
CDK9 (human) = CDK9 (human) (UniProt P50750)
FGFR3 (human) = FGFR3 (human) (UniProt P22607)
[2] = tested on: FGFR3 (human), P22607 [G697C]
INSR (human) = INSR (human) (UniProt P06213)
IKBKE (human) = IKBKE (human) (UniProt Q14164)
IKBKB (human) = IKBKB (human) (UniProt O14920)
ABL1 (human) = ABL1 (human) (UniProt P00519)
BMPR1B (human) = BMPR1B (human) (UniProt O00238)
PKN1 (human) = PKN1 (human) (UniProt Q16512)
PRKD3 (human) = PRKD3 (human) (UniProt O94806)
PIM2 (human) = PIM2 (human) (UniProt Q9P1W9)
CLK2 (human) = CLK2 (human) (UniProt P49760)
MLTK (human) = MLTK (human) (UniProt Q9NYL2)
MST1R (human) = MST1R (human) (UniProt Q04912)
MERTK (human) = MERTK (human) (UniProt Q12866)
[3] = tested on: PIK3CA (human), P42336 [E545A]

Sequence of IKBKB (human) (O14920 whole entry, looked up): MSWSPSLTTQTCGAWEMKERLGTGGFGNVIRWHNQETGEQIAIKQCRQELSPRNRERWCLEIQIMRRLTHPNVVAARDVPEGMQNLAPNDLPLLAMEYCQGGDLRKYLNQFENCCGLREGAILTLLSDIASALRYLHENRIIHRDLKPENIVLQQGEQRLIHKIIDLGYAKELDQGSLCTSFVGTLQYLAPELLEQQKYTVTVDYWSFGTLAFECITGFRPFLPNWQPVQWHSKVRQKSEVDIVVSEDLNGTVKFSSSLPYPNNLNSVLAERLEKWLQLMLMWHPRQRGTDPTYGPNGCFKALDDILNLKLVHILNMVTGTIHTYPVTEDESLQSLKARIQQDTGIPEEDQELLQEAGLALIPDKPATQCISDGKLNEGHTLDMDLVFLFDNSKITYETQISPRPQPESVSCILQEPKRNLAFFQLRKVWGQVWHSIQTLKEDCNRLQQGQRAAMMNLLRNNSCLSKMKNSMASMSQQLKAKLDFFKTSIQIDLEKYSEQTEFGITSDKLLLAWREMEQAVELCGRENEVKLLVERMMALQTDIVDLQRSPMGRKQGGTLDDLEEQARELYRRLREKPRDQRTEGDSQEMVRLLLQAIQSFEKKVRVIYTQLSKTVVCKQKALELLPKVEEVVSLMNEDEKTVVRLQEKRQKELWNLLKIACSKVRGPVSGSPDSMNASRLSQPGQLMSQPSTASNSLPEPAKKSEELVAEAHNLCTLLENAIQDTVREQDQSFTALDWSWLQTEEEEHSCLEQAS
Sequence of MST1R (human) (Q04912 whole entry, looked up): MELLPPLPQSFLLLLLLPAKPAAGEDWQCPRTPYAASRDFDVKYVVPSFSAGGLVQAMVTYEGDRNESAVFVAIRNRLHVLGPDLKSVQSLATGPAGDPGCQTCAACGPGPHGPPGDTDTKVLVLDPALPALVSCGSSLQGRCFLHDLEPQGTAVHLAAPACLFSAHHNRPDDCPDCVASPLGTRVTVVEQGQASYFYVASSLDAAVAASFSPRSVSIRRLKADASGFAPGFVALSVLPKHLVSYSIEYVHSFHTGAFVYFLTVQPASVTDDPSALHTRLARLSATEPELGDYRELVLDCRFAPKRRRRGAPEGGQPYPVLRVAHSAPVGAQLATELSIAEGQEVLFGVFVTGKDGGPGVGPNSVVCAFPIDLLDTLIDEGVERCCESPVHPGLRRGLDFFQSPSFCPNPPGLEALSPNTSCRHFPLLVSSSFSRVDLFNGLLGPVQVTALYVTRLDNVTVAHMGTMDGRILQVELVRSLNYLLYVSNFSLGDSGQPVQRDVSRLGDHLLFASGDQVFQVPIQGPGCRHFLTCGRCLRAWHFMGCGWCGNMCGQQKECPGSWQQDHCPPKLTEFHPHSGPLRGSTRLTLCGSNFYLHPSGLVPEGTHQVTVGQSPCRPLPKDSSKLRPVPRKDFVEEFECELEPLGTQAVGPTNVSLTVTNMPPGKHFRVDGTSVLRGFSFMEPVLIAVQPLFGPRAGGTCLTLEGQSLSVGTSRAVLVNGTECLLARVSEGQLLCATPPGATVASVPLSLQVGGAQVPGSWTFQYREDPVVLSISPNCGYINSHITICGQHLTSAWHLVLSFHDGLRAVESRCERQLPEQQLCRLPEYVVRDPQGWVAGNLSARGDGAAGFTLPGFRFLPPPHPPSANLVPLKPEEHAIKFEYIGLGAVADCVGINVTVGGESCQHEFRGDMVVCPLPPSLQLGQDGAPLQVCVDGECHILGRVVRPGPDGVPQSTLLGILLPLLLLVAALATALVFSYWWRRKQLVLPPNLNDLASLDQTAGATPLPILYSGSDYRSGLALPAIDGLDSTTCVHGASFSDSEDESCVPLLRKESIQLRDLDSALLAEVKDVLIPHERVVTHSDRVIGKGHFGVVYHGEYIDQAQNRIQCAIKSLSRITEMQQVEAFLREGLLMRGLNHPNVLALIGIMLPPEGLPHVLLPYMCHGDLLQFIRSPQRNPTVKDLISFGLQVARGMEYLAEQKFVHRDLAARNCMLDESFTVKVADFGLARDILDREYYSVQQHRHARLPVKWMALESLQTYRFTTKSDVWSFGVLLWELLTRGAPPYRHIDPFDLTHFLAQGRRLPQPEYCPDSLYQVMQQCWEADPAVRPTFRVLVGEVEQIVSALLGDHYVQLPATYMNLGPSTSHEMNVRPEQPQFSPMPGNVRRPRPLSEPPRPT
Sequence of ABL1 (human) (P00519 whole entry, looked up): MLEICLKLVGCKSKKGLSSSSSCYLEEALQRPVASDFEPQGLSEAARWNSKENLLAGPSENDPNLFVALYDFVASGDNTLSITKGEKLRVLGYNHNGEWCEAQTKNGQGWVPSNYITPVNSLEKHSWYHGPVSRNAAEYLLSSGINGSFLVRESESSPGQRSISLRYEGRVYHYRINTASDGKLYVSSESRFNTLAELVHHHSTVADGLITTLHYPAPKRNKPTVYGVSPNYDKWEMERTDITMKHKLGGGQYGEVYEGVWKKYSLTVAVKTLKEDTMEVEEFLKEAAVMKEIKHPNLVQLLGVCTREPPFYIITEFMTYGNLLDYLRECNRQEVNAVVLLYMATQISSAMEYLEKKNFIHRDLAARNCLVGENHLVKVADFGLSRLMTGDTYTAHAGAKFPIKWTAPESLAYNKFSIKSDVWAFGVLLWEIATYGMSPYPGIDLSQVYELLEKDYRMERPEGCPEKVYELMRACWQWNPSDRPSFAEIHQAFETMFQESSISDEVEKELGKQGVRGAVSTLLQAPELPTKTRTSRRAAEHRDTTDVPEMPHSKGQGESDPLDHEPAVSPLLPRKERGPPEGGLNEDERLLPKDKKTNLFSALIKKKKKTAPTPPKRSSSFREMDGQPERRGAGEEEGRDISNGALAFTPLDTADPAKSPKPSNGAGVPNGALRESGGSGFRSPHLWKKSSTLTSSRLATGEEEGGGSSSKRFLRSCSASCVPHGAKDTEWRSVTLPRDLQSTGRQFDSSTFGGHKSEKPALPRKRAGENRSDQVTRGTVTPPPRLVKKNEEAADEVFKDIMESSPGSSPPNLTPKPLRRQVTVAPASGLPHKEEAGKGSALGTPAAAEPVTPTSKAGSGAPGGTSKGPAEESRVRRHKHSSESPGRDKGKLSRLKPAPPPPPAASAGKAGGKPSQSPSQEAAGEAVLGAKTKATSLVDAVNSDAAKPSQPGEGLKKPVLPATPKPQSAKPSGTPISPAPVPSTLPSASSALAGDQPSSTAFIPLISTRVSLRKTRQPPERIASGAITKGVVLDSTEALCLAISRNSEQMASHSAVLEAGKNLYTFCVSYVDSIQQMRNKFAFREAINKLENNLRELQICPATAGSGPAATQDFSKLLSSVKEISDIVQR
Sequence of SRPK2 (human) (P78362 whole entry, looked up): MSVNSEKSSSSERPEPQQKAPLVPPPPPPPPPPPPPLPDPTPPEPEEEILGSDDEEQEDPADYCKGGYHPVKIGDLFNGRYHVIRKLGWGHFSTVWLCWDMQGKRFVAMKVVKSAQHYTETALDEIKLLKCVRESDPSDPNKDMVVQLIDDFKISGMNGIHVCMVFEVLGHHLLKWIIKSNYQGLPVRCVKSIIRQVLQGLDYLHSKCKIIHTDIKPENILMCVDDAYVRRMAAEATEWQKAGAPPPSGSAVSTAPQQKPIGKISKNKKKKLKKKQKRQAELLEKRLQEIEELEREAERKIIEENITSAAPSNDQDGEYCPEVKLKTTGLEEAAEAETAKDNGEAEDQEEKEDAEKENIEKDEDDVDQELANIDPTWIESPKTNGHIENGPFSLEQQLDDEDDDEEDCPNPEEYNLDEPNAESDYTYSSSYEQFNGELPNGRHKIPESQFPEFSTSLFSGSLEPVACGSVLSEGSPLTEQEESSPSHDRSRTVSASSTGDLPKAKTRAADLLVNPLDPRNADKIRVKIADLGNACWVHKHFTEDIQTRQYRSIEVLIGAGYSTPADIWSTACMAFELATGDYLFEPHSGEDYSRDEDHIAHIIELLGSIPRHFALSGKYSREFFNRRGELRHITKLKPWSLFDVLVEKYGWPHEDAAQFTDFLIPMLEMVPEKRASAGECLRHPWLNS
Sequence of PDPK1 (human) (O15530 whole entry, looked up): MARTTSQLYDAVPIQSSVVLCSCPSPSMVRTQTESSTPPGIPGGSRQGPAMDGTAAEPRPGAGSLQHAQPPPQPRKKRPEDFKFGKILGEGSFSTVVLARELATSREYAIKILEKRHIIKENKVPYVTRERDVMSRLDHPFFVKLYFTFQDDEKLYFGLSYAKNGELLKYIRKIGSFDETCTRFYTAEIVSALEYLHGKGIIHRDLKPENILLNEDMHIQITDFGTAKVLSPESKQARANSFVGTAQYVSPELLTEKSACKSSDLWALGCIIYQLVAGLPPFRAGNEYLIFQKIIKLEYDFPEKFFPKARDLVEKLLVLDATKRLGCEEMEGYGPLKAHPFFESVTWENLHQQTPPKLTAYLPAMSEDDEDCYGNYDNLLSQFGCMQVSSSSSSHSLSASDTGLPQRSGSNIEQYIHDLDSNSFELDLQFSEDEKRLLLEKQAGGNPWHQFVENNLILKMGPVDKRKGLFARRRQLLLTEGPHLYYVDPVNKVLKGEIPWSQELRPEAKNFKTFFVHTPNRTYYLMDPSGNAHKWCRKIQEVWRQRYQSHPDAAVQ
Sequence of FGR (human) (P09769 whole entry, looked up): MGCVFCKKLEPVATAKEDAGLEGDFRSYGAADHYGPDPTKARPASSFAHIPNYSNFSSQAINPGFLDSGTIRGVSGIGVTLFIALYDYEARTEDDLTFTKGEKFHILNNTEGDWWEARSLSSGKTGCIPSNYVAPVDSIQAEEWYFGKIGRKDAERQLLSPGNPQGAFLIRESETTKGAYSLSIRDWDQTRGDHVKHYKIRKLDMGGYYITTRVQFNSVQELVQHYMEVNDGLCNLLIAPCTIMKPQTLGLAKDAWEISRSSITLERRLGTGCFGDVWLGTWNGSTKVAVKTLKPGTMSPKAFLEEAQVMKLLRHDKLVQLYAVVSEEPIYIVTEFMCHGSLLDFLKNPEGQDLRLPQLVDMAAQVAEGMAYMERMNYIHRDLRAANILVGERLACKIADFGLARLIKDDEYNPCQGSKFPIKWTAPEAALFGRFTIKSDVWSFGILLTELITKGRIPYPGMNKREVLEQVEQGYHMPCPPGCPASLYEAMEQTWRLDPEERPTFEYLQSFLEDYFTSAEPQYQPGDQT

kinase still bound, per cent of control (PDPK1 (human)): 20%
kinase still bound, per cent of control (DMPK (human)): 100%
kinase still bound, per cent of control (CAMKK1 (human)): 4.8%
kinase still bound, per cent of control (FYN (human)): 1.6%
kinase still bound, per cent of control (PTK2B (human)): 9.3%
kinase still bound, per cent of control (PRKD2 (human)): 100%
kinase still bound, per cent of control (RIOK2 (human)): 18%
kinase still bound, per cent of control (PIK3C2G (human)): 100%
kinase still bound, per cent of control (SRPK2 (human)): 5.8%
kinase still bound, per cent of control (OXSR1 (human)): 58%
kinase still bound, per cent of control (ANKK1 (human)): 4.8%
kinase still bound, per cent of control (FGR (human)): 1.4%
kinase still bound, per cent of control [1]: 48%
kinase still bound, per cent of control (KIT (human)): 0.05%
kinase still bound, per cent of control (CDK3 (human)): 75%
kinase still bound, per cent of control (RPS6KA4 KD2 (human)): 44%
kinase still bound, per cent of control (CDKL5 (human)): 7.4%
kinase still bound, per cent of control (MYLK2 (human)): 3%
kinase still bound, per cent of control (CDK17 (human)): 12%
kinase still bound, per cent of control (RPS6KA4 KD1 (human)): 3.2%
kinase still bound, per cent of control (DAPK2 (human)): 2.6%
kinase still bound, per cent of control (SIK2 (human)): 8.2%
kinase still bound, per cent of control (MAPKAPK2 (human)): 100%
kinase still bound, per cent of control (NUAK2 (human)): 39%
kinase still bound, per cent of control (EPHB3 (human)): 100%
kinase still bound, per cent of control (CDK9 (human)): 26%
kinase still bound, per cent of control (FGFR3 (human)): 12%
kinase still bound, per cent of control [2]: 14%
kinase still bound, per cent of control (INSR (human)): 72%
kinase still bound, per cent of control (IKBKE (human)): 29%
kinase still bound, per cent of control (IKBKB (human)): 78%
kinase still bound, per cent of control (ABL1 (human)): 2.3%
kinase still bound, per cent of control (BMPR1B (human)): 50%
kinase still bound, per cent of control (PKN1 (human)): 79%
kinase still bound, per cent of control (PRKD3 (human)): 70%
kinase still bound, per cent of control (PIM2 (human)): 52%
kinase still bound, per cent of control (CLK2 (human)): 8.2%
kinase still bound, per cent of control (MLTK (human)): 26%
kinase still bound, per cent of control (MST1R (human)): 100%
kinase still bound, per cent of control (MERTK (human)): 0.4%
kinase still bound, per cent of control [3]: 100%
SMILES: O=C1Nc2cc(Br)ccc2/C1=C1/Nc2ccccc2/C1=N\O
kinase still bound, per cent of control (MAPK15 (human)): 29%
